Assay results taken from US9999222B2, “Herbicidal combination comprising azines” (BASF SE, priority 2014, dated 2018).
Where two headings read alike, the source gives them in different places.

What was measured:
Assay in all cases: Greenhouse test, pre-emergence treatment
[1] = system: EPHHL; assay type: in vivo, Euphorbia heterophylla; details: Euphorbia heterophylla, pre-emergence, 480 h, pre-emergence, 250 g ai/ha; read-out: observed % activity 20 DAT
Outline: (§1)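 Seeds were sown in loamy sand with approximately 3.0% humus, then sprayed at once with actives suspended or emulsified in water. Pots were watered, hooded until rooting, held at 10-25° C. or 20-35° C. by species for 2 to 4 weeks, and scored 0 (no damage) to 100 (no emergence/complete destruction).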

[2] = system: VIOAR; assay type: in vivo, Viola arvensis
Text: The culture containers used were plastic flowerpots containing loamy sand with approximately 3.0% of humus as the substrate. The seeds of the test plants were sown separately for each species.
For the pre-emergence treatment, the active ingredients, which had been suspended or emulsified in water, were applied directly after sowing by means of finely distributing nozzles. The containers were irrigated gently to promote germination and growth and subsequently covered with transparent plastic hoods until the plants had rooted. This cover caused uniform germination of the test plants, unless this had been impaired by the active ingredients.
Depending on the species, the plants were kept at 10-25° C. or 20-35° C., respectively.
The test period extended over 2 to 4 weeks. During this time, the plants were tended, and their response to the individual treatments was evaluated.
Evaluation was carried out using a scale from 0 to 100. 100 means no emergence of the plants, or complete destruction of at least the aerial moieties, and 0 means no damage, or normal course of growth. A moderate herbicidal activity is given at values of at least 60, a good herbicidal activity is given at values of at least 70, and a very good herbicidal activity is given at values of at least 85.
The respective stated components a and b, and if appropriate, c were formulated as a 10% by weight strength emulsion concentrate and, with addition of the amount of solvent system, introduced into the spray liquor used for applying the active compound.
In the examples, the solvent used was water.
In the examples below, using the method of S. R. Colby (1967) “Calculating synergistic and antagonistic responses of herbicide combinations”, Weeds 15, p. 22ff., the value E, which is expected if the activity of the individual active compounds is only additive, was calculated. E=X+Y−(X·Y/100) where • X=percent activity using active compound a at an application rate A; • Y=percent activity using active compound b at an application rate B; • E=expected activity (in %) by a+b at application rates A+B.
If the value found experimentally is higher than the value E calculated according to Colby, a synergistic effect is present.

[3] = system: KCHSC; assay type: in vivo, Kochia scoparia; details: Bassia scoparia, 480 h, pre-emergence, read-out: observed % activity 20 DAT
Outline: as §1

[4] = system: AVEFA; assay type: in vivo, Avena fatua; details: pre-emergence
Outline: as §1

[5] = system: SETFA; assay type: in vivo, Setaria faberi
Outline: as §1

[6] = system: ECHCG; assay type: in vivo, Echinocloa crus-galli; details: Echinochloa crus-galli, 480 h, use rate 31.25 g ai/ha, read-out: observed % activity 20 DAT
Outline: as §1

[7] = system: PHACA; assay type: in vivo, Phalaris canariensis; details: pre-emergence, pre-emergence
Outline: as §1

[8] = system: LOLMU; assay type: in vivo, Lolium multiflorum; details: Lolium multiflorum, pre-emergence, 480 h, pre-emergence, read-out: observed % activity 20 DAT
Outline: as §1

[9] = system: ALOMY; assay type: in vivo, Alopecurus myosuroides; details: Alopecurus myosuroides, pre-emergence, 480 h, pre-emergence, read-out: observed % activity 20 DAT
Outline: as §1

[10] = system: POLCO; assay type: in vivo, Polygonum convolvulus; details: Fallopia convolvulus, 480 h, pre-emergence, read-out: observed % activity 20 DAT
Outline: as §1

[11] = system: GERPU; assay type: in vivo, Geranium pusillum; details: Geranium pusillum, pre-emergence, 480 h, pre-emergence, read-out: observed % activity 20 DAT
Outline: as §1

[12] = system: BRADC; assay type: in vivo, Brachiaria decumbens; details: Urochloa decumbens, pre-emergence, 480 h, pre-emergence, read-out: observed % activity 20 DAT
Outline: as §1

For COCC(C)N(C(=O)CCl)c1c(C)csc1C (stereo not shown) [Dimethenamid, dimethenamid], the pest or weed control at 250 g/ha [1] was 25%, the inhibition at 31.25 g/ha ([2]; Viola arvensis, 480 h, use rate 31.25 g ai/ha, read-out: observed % activity 20 DAT) was 0% and the inhibition at 62.5 g/ha ([2]; Viola arvensis, 480 h, use rate 62.5 g ai/ha, read-out: observed % activity 20 DAT) was 0%. For the same molecule, the inhibition at 125 g/ha ([2]; Viola arvensis, 480 h, use rate 125 g ai/ha, read-out: observed % activity 20 DAT) was 0%, the “observed % activity 20 DAT” value ([2]; use rate 31.25 g ai/ha) was 0% and the “observed % activity 20 DAT” value ([2]; use rate 62.5 g ai/ha) was 0%. For the same molecule, the “observed % activity 20 DAT” value ([2]; use rate 125 g ai/ha) was 0%, the pest or weed control at 250 g/ha ([3]; 250 g ai/ha) was 75% and the pest or weed control at 31.25 g/ha ([3]; use rate 31.25 g ai/ha, 20 DAT) was 0%. It also gave a pest or weed control at 62.5 g/ha ([3]; use rate 62.5 g ai/ha, 20 DAT) of 0%, a pest or weed control at 125 g/ha ([3]; use rate 125 g ai/ha, 20 DAT) of 0% and an inhibition at 31.25 g/ha ([3]; use rate 31.25 g ai/ha) of 0%. For the same molecule, the inhibition at 62.5 g/ha ([3]; use rate 62.5 g ai/ha) was 0%, the inhibition at 125 g/ha ([3]; use rate 125 g ai/ha) was 0% and the “observed % activity 20 DAT” value ([4]; 55 g ai/ha) was 95%. For the same molecule, the “observed % activity 20 DAT” value ([4]; 250 g ai/ha) was 85%, the inhibition at 15.625 g/ha ([5]; Setaria faberi, 480 h, use rate 15.625 g ai/ha, read-out: observed % activity 20 DAT) was 85% and the inhibition at 31.25 g/ha ([5]; Setaria faberi, 480 h, use rate 31.25 g ai/ha, read-out: observed % activity 20 DAT) was 98%. For the same molecule, the “observed % activity 20 DAT” value ([5]; use rate 31.25 g ai/ha, 20 DAT) was 98%, the pest or weed control at 31.25 g/ha ([6]; 20 DAT) was 98% and the inhibition at 31.25 g/ha [6] was 98%. The pest or weed control at 125 g/ha ([7]; Phalaris canariensis, 480 h, 125 g ai/ha, read-out: observed % activity 20 DAT) was 70%, the pest or weed control at 500 g/ha ([7]; Phalaris canariensis, 480 h, 500 g ai/ha, read-out: observed % activity 20 DAT) was 98% and the pest or weed control at 15.625 g/ha ([7]; Phalaris canariensis, 480 h, use rate 15.625 g ai/ha, 20 DAT, read-out: observed % activity 20 DAT) was 10%. It also gave a pest or weed control at 31.25 g/ha ([7]; Phalaris canariensis, 480 h, use rate 31.25 g ai/ha, 20 DAT, read-out: observed % activity 20 DAT) of 55%, an inhibition at 31.25 g/ha ([7]; Phalaris canariensis, 480 h, use rate 31.25 g ai/ha, read-out: observed % activity 20 DAT) of 55% and a pest or weed control at 62.5 g/ha ([7]; Phalaris canariensis, 480 h, use rate 62.5 g ai/ha, 20 DAT, read-out: observed % activity 20 DAT) of 65%. For the same molecule, the pest or weed control at 125 g/ha ([7]; Phalaris canariensis, 480 h, use rate 125 g ai/ha, 20 DAT, read-out: observed % activity 20 DAT) was 80%, the inhibition at 125 g/ha ([7]; Phalaris canariensis, 480 h, use rate 125 g ai/ha, read-out: observed % activity 20 DAT) was 80% and the “observed % activity 20 DAT” value ([7]; 125 g ai/ha) was 70%. It also gave a pest or weed control at 125 g/ha ([8]; 125 g ai/ha) of 85%, a pest or weed control at 250 g/ha ([8]; 250 g ai/ha) of 98% and a pest or weed control at 15.625 g/ha ([8]; use rate 15.625 g ai/ha, 20 DAT) of 0%. The inhibition at 31.25 g/ha ([8]; use rate 31.25 g ai/ha) was 55%, the pest or weed control at 62.5 g/ha ([8]; use rate 62.5 g ai/ha, 20 DAT) was 85% and the inhibition at 62.5 g/ha ([8]; use rate 62.5 g ai/ha) was 85%. It also gave a pest or weed control at 125 g/ha ([8]; use rate 125 g ai/ha, 20 DAT) of 95%, an inhibition at 125 g/ha ([8]; use rate 125 g ai/ha) of 95% and a pest or weed control at 125 g/ha ([9]; 125 g ai/ha) of 25%. For the same molecule, the pest or weed control at 500 g/ha ([9]; 500 g ai/ha) was 75%, the pest or weed control at 62.5 g/ha ([9]; use rate 62.5 g ai/ha, 20 DAT) was 0% and the inhibition at 62.5 g/ha ([9]; use rate 62.5 g ai/ha) was 0%. For the same molecule, the inhibition at 125 g/ha ([9]; use rate 125 g ai/ha) was 35%, the pest or weed control at 31.25 g/ha ([10]; use rate 31.25 g ai/ha, 20 DAT) was 0% and the pest or weed control at 62.5 g/ha ([10]; use rate 62.5 g ai/ha, 20 DAT) was 0%. The pest or weed control at 125 g/ha ([10]; use rate 125 g ai/ha, 20 DAT) was 0%, the inhibition at 31.25 g/ha ([10]; use rate 31.25 g ai/ha) was 0% and the inhibition at 62.5 g/ha ([10]; use rate 62.5 g ai/ha) was 0%. It also gave an inhibition at 125 g/ha ([10]; use rate 125 g ai/ha) of 0%, a pest or weed control at 250 g/ha ([11]; 250 g ai/ha) of 98% and an inhibition at 15.625 g/ha ([11]; use rate 15.625 g ai/ha) of 50%. It also gave an inhibition at 31.25 g/ha ([11]; use rate 31.25 g ai/ha) of 70%, a pest or weed control at 62.5 g/ha ([11]; use rate 62.5 g ai/ha, 20 DAT) of 85% and an inhibition at 62.5 g/ha ([11]; use rate 62.5 g ai/ha) of 85%. For the same molecule, the pest or weed control at 125 g/ha ([11]; use rate 125 g ai/ha, 20 DAT) was 95%, the pest or weed control at 125 g/ha ([12]; 125 g ai/ha) was 98% and the pest or weed control at 250 g/ha ([12]; 250 g ai/ha) was 98%. The pest or weed control at 500 g/ha ([12]; 500 g ai/ha) was 98%.
